Where a name gives a salt, the structure may show the parent alone. Read-outs that look alike come from different tables or passages of the source.

Data on four compounds can be found in patent US6258840A, “Analogues or derivatives of quercetin (prodrugs)” (Cobra Therapeutics Limited, priority 1996, dated 2001).

The conditions of data set [1]: pharmaceutically acceptable solvents; cited from earlier work.
The test system of data set [2] is calcium- and phospholipid dependent protein kinase (protein kinase C). Conditions: in vitro; cited from earlier work.
The test system is the same in data set [3]. Conditions: in vivo; cited from earlier work.
Data set [4] has as its system antiproliferative activity of cis-diaminedichloroplatinum II (cis-DDP). The conditions noted are these: in vitro, with cis-DDP; cited from earlier work.
Data set [5] shares this test system. The conditions noted are these: in vivo, with cis-DDP; cited from earlier work.
Data set [6] can be described thus: Stability to Human Plasma (HPLC, 37° C.). It counts as in vitro ADME. Conditions: for half-life: 0.02 ml of 6.3 mg/ml prodrug solution added to 2.5 ml plasma. The method, then: Freshly prepared plasma (2.5 ml) was incubated at 37° C. and 0.02 ml of a 6.3 mg/ml solution of the prodrug compound in water was added. Aliquots of plasma were taken for HPLC analysis at zero time and at intervals thereafter. Samples were quenched with chilled methanol, the resulting precipitate was centrifuged at 4° C. at 800 rpm for 5 minutes, and the supernatant was analysed by HPLC.

With `O=c1c(O)c(-c2ccc(O)c(O)c2)oc2cc(O)cc(O)c12` [Quercetin, 3,3',4',5,7-pentahydroxyflavone], in data set [1], the solubility entry was “limited solubility”. Besides, the “inhibition of protein kinase C activity” value in data set [2] and in data set [3] was “inhibit the activity” throughout. Moreover, the “enhancement of antiproliferative activity of cis-DDP” value in data set [4] and in data set [5] was “synergistically enhances the antiproliferative activity” throughout.

Consider `O=C(O)CNC(=O)Oc1cc(-c2oc3cc(O)cc(O)c3c(=O)c2O)ccc1O` [3' carbamate ester, 3'-((N-Carboxymethyl)carbamoyloxy)-3,4',5,7-tetrahydroxyflavone, N-Methyl-D-glucamine salt], for which, in data set [6], the “conversion into Quercetin” value was “converted into Quercetin” and the half-life (as a rule, how long it takes for the measured level to halve) was about 1 h.

As to “3'/4'-((N-Carboxymethyl)carbamoyloxy)-3,4'(3'),5,7-tetrahydroxy-flavone, N-Methyl-D-glucamine salt”, where the note is “10 mg/ml solution in water”, the “pH of solution in water” value is listed as “approximately 7”. Also, the “period for which the solution is stable” value (10 mg/ml solution in water, -20° C.) was “at least 12 weeks”. Further, for the setting “diluted into dextrose, final prodrug concentration 1 mg/ml”, the “pH of solution in dextrose” value is “approximately 6”.

As for `O=C(O)CNC(=O)Oc1ccc(-c2oc3cc(O)cc(O)c3c(=O)c2O)cc1O` [4' carbamate ester], in data set [6], the “conversion into Quercetin” value was “converted into Quercetin” and the half-life was about 1 h.
